Tested on: Black Sigatoka on Bananas
Assay: Assessment of disease in field plots: Black Sigatoka on banana plants, natural inoculation
Format: in vivo, Mycosphaerella fijiensis
Conditions: for Disease Severity (AUDPC): 61 Day After Application, Area Under Disease Progression Curve, banana field plots; for Total Number of Functional Leaves: bananas
Description: Aliquots of a 10% SC formulation of Compound I were diluted into water and mixed with Spraytex CT mineral oil (7 L/Ha) to achieve active ingredient application rates of 50, 100, 150, 200, 300 & 400 g a.i./Ha. These treatments were delivered to banana plants in field plots at an application volume of 23 L/Ha, using a Solo back-pack pump sprayer fitted with a Micronair AU8000 atomizer. A total of five applications were made at 10 day intervals. Experimental design was based on a randomized complete block, and 4 replications. Disease symptoms resulted from natural inoculation and epidemic development. Total experimental plot size was 96 m^2. Efficacy was determined by both percent visual infection and the number of functional leaves.

COc1ccnc(C(=O)N[C@H]2COC(=O)[C@H](Cc3ccccc3)[C@@H](OC(=O)C(C)C)[C@H](C)OC2=O)c1OCOC(=O)C(C)C [Compound I]
Disease Severity (AUDPC) (Compound I 50 ppm): 29 | Disease Severity (AUDPC) (Compound I 100 ppm): 34 | Disease Severity (AUDPC) (Compound I 150 ppm): 29 | Disease Severity (AUDPC) (Compound I 200 ppm): 28 | Disease Severity (AUDPC) (Compound I 300 ppm): 35 | Total Number of Functional Leaves (Rate 50 g ai/ha, Week 10): 12.8 | Total Number of Functional Leaves (Rate 50 g ai/ha, Week 13): 13.0 | Total Number of Functional Leaves (Rate 50 g ai/ha, Week 15): 14.7 | Total Number of Functional Leaves (Rate 100 g ai/ha, Week 10): 9.3 | Total Number of Functional Leaves (Rate 100 g ai/ha, Week 13): 12.7 | Total Number of Functional Leaves (Rate 100 g ai/ha, Week 15): 14.1 | Total Number of Functional Leaves (Rate 200 g ai/ha, Week 10): 8.6 | Total Number of Functional Leaves (Rate 200 g ai/ha, Week 13): 12.3 | Total Number of Functional Leaves (Rate 200 g ai/ha, Week 15): 14.0 | Total Number of Functional Leaves (Rate 400 g ai/ha, Week 10): 8.7 | Total Number of Functional Leaves (Rate 400 g ai/ha, Week 13): 12.7 | Total Number of Functional Leaves (Rate 400 g ai/ha, Week 15): 14.0

From US9198419B2, “Use of pro-fungicides of UK-2A for control of black sigatoka” (Dow AgroSciences LLC, priority 2012, dated 2015)
